From PubChem BioAssay (NCI)
“And” between values parts separate entries of the source, which are not always exact repeats. Identical values can stand only once.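 Assay format: 96-well plates, 48-hour exposure. The concentration for 50% growth inhibition is given as GI50. At the TGI there is no net growth.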

How the values were obtained:
Experiment in all cases: DTP human tumour cell line panel, 48 h
OVCAR-3 ovarian = system: OVCAR-3 ovarian
ACHN renal = system: ACHN renal
NCI-H460 lung = system: NCI-H460 lung
NCI-H226 lung = system: NCI-H226 lung
IGROV1 ovarian = system: IGROV1 ovarian
SF-539 CNS = system: SF-539 CNS
A549 NSCLC = system: A549 NSCLC
DU-145 prostate = system: DU-145 prostate
MCF7 breast = system: MCF7 breast
BT-549 breast = system: BT-549 breast

| SMILES | GI50 (OVCAR-3 ovarian) [µM] | TGI (OVCAR-3 ovarian) [µM] | TGI (ACHN renal) [µM] | TGI (NCI-H460 lung) [µM] | TGI (NCI-H226 lung) [µM] | GI50 (IGROV1 ovarian) | TGI (IGROV1 ovarian) [µM] | TGI (SF-539 CNS) [µM] | TGI (A549 NSCLC) [µM] | TGI (DU-145 prostate) [µM] | TGI (MCF7 breast) [µM] | TGI (BT-549 breast) [µM] | GI50 (MCF7 breast) [µM] | GI50 (ACHN renal) [µM] | GI50 (A549 NSCLC) [µM] | GI50 (DU-145 prostate) [µM] | GI50 (NCI-H460 lung) [µM] | GI50 (NCI-H226 lung) [µM] | GI50 (SF-539 CNS) [µM] | GI50 (BT-549 breast) [µM] |
| --- | --- | --- | --- | --- | --- | --- | --- | --- | --- | --- | --- | --- | --- | --- | --- | --- | --- | --- | --- | --- |
| COc1cccc(/C=N/[N-]C(N)=O)c1[O-].[Cu+2].[OH3+] | 10.4 | 22.8 | 24.8 | 36 | 31.3 | 6.14 µM | 19.6 | 33.5 |  |  |  |  |  |  |  |  |  |  |  |  |
| Cc1ccc(S(=O)(=O)N/N=c2/sc3ccccc3n2C)cc1 |  |  | > 100 | > 100 | > 100 |  | > 100 | > 100 | > 100 | > 100 |  |  |  |  |  |  |  |  |  |  |
| Cc1nc2sccn2c1C(=O)NNC(N)=S |  | > 100 | > 100 | > 100 | > 100 |  | > 100 | > 100 | > 100 |  |  |  |  |  |  |  |  |  |  |  |
| CCOC(=O)C1C(c2ccc(Br)cc2)N(Cc2ccccc2)C(c2ccc(Br)cc2)C(C(=O)OC)S1(=O)=O (centres undefined) |  | > 100 | > 100 | > 100 | > 100 |  | > 100 |  | > 100 |  |  |  |  |  |  |  |  |  |  |  |
| O=C1/C(=C\c2cccc(Oc3ccccc3)c2)SC(c2ccccc2)N1c1cc(Cl)ccc1Cl (centres undefined) |  | 77.4 | > 100 | > 100 |  |  | > 100 | 88.5 | > 100 | > 100 | > 100 | > 100 |  |  |  |  |  |  |  |  |
| COc1c(OC2OC(CO)C(O)C(O)C2O)cc2c(c1OC)-c1ccc(OC)c(=O)cc1C(NC(C)=O)CC2 (centres undefined) |  | > 100 | > 100 | > 100 | > 100 |  | > 100 | > 100 | > 100 |  |  |  |  |  |  |  |  |  |  |  |
| COc1cc2c(cc1OC)C1=C(C=O)c3ccc(OC)c(OC)c3C(O)N1CC2 (centres undefined) |  | > 100 | > 100 | > 100 | > 100 |  |  | 64.8 | > 100 | 87.5 | > 100 | 70.1 |  |  |  |  |  |  |  |  |
| O=c1[nH]ncc2[nH]c3c(c12)CCc1ccccc1-3 |  | > 100 | > 100 | 77 | 40.7 |  | 44.3 | 42.1 | > 100 | > 100 |  | > 100 |  |  |  |  |  |  |  |  |
| CC1CC(c2ccccc2)=Nc2ccccc2S1 (centres undefined) |  |  | > 100 | > 100 | > 100 |  | > 100 | > 100 | > 100 |  |  |  |  |  |  |  |  |  |  |  |
| C[n+]1c2ccccc2n2c3ccccc3c(NCCCn3ccnc3)c(C#N)c21 |  | > 25.2 | > 27.7 | 3.63 | 9.11 |  |  | 24.5 | 32.2 | 15.5 | > 34 | > 100 |  |  |  |  |  |  |  |  |
| O=C(Nc1ccc(-n2cc(-c3ccncc3)c(-c3ccc(O)c(Cl)c3)n2)cc1)Nc1cc(C(F)(F)F)cc(C(F)(F)F)c1 | 2.73 | 6.76 | 11.7 | 14.6 | 29.4 | 4.61 µM | 18.9 | 15.3 | 15.5 | 18.9 | 13.2 |  | 3.3 | 3.24 | 4.06 | 5.97 | 3.69 | 13.3 | 3.81 |  |
| COCOC1CCCC[C@@]1(OCCOCCO[C@@]1(c2ccccc2)CCCC[C@H]1OCOC)c1ccccc1 (some centres undefined) |  | > 100 | > 100 | > 100 | > 100 |  | > 100 |  | > 100 |  |  |  |  |  |  |  |  |  |  |  |
| COc1ccccc1N=Nc1c(O)ccc2ccccc12 |  | > 100 | 27.2 | 38.1 |  | 3.93 µM and 35.4 µM | > 100 |  | > 100 | > 100 | > 100 | > 100 |  |  |  |  |  |  |  |  |
| Cc1ccc(C(=O)Nc2ccc(CP(=O)(O)O)cc2CP(=O)(O)O)cc1N |  | > 100 | > 100 |  | > 100 |  | > 100 | > 100 | > 100 | > 100 | > 100 | > 100 |  |  |  |  |  |  |  |  |
| CC(C)C(NCc1c2ccccc2[n+](C)c2ccccc12)C(=O)O (centres undefined) |  | 16.9 | 16.4 | 29.1 | 38.6 |  | 25.5 | 14.3 | 29.9 |  |  |  |  |  |  |  |  |  |  |  |
| Nc1c(C(=O)O)c2ccc([N+](=O)[O-])cc2c(=O)n1-c1nc2ccccc2s1 |  | > 100 | > 100 | > 100 | > 100 |  | > 100 |  | > 100 | > 100 | > 100 | > 100 |  |  |  |  |  |  |  |  |
| CN(Cc1cnc2nc(N)nc(N)c2n1)c1ccc(C(=O)NC(CCC(=O)O)C(=O)O)c2ccccc12 (centres undefined) | 32.9 |  | > 1000 | > 1000 | > 1000 |  | > 1000 |  | > 1000 | > 1000 | > 1000 | > 1000 |  |  |  |  |  | > 1000 |  | > 1000 |
| C/C(CCN(C)C)=N/O |  | 2.04 | 22.3 | 58.5 | 63.9 |  | 39.2 | 1.89 | 17.4 |  |  |  |  |  |  |  |  |  |  |  |
| Cc1nc(C(=Nc2ccc(Br)cc2)Nn2cnnc2)no1 |  | > 100 | > 100 | > 100 |  |  | > 100 |  | > 100 | > 100 | > 100 | > 100 |  |  |  |  |  |  |  |  |
| COCc1cc2c(s1)C(=O)C1=C(C2=O)C2(C=C(Br)C(=O)C(Br)=C2)CCN1 |  | 11.8 | 18 | 14.5 | 26.7 |  | 19.3 | 15.5 | 19.4 | 29.8 | 28.1 |  |  |  |  |  |  |  |  |  |
| CCOC(=O)CNC(=O)c1[nH]cnc1/N=N/N(C)C |  | > 100 | > 100 | > 100 | > 100 |  | > 100 | > 100 | > 100 |  |  |  |  |  |  |  |  |  |  |  |
| NCCCNc1nc2ccccc2c2c(=O)c3cc(Cl)ccc3sc12 |  |  | 2.92 |  | 74.2 |  |  | 3.15 |  | 3.27 |  | 46.2 |  | 1.57 |  | 1.84 |  | 8.54 | 1.72 | 13.5 |
| CC(C)(NO)/C(=N\O)c1ccccc1 |  | > 10 | > 10 | > 10 | > 10 |  |  |  |  | > 10 | > 10 | > 10 |  |  |  |  |  |  |  |  |
